Experimental data published in patent publication US12528790B2, “Amide derivative having antiviral activity” (Shionogi & Co., Ltd., priority 2020, dated 2026).
Read-outs that look alike come from different tables or passages of the source.

Columns and labels:
[1] = tested on: RSV B (Wash/18537 strain); test: In vitro CPE (CytoPathic Effect) inhibition effect evaluation test, RSV type B; format: cell-based; conditions: human respiratory syncytial virus
Method in brief: (§1)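 HEp-2 cells (2.4×10^5 cells/mL, 2% FBS E-MEM) were infected with RSV alongside 3-fold compound dilutions and incubated at 37 °C, 4 days for A2 and 5 days for B Wash/18537. Viable cells quantified by CellTiter-Glo 2.0 luminescence; EC50 by nonlinear regression as 50% CPE inhibition.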

RSV A2 strain = test: In vitro CPE (CytoPathic Effect) inhibition effect evaluation test, RSV type A; format: cell-based; conditions: human respiratory syncytial virus
Method in brief: as §1

[2] = inhibitory effect against RSV type B, CPE inhibition, read-out: EC50
[3] = inhibitory effect against RSV type A (RSV A2 strain), HEp-2 cells, CPE inhibition, read-out: EC50
[4] = HEp-2, 120 h, HEp-2 cells, RSV B (Wash/18537 strain), 5 days, CellTiter-Glo, read-out: EC50, inhibitory effect against RSV type B (CPE inhibition)
[5] = HEp-2, 96 h, read-out: EC50, inhibitory effect against RSV type A (CPE inhibition)

Structure (SMILES) | EC50 [1, 2] | EC50 (RSV A2 strain; [3]) | EC50 [1, 4] | EC50 (RSV A2 strain; [5])
COC[C@@H](C)n1cc(-c2ncc(C(=O)NC3(C(=O)O)C4CC5CC(C4)CC3C5)c(C(C)(F)F)n2)c2ccc(O[C@H]3CC[C@H](N4CC(F)(F)C4)CC3)cc21 (some centres unmarked) [Compound I-569] | < 10 nM | < 10 nM | – | –
CCC(CC)n1cc(-c2ncc(C(=O)NC3(C(=O)O)C4CC5CC(C4)CC3C5)c(C(C)(F)F)n2)c2ccc(O[C@H]3CC[C@H](N4CC(F)(F)C4)CC3)cc21 (some centres unmarked) [Compound I-570] | – | – | 2.1 nM | 0.7 nM
CC(F)(F)c1nc(-c2cn(C3CCOCC3)c3cc(O[C@H]4CC[C@H](N5CC(F)(F)C5)CC4)ccc23)ncc1C(=O)NC1(C(=O)O)C2CC3CC(C2)CC1C3 (some centres unmarked) [Compound I-572] | < 10 nM | < 10 nM | – | –
O=C(NC1(C(=O)O)C2CC3CC(C2)CC1C3)c1cnc(-c2cn(C3CCC(F)(F)CC3)c3cc(-n4ncc5c4CCN(CC(F)(F)F)C5)ccc23)nc1C(F)(F)F (centres unmarked) [Compound I-573] | < 10 nM | < 10 nM | – | –
CCC(CC)n1cc(-c2ccc(C(=O)NC3(C(=O)O)C4CC5CC(C4)CC3C5)c(C(F)(F)F)n2)c2ccc(O[C@H]3CC[C@H](N4CC(F)(F)C4)CC3)cc21 (some centres unmarked) [Compound I-575] | < 10 nM | < 10 nM | – | –
COC[C@@H](C)n1cc(-c2ncc(C(=O)NC3(C(=O)O)C4CC5CC(C4)CC3C5)c(C(F)(F)F)n2)c2ccc(OC3CCN(CC(C)(F)F)CC3)cc21 (some centres unmarked) [Compound I-576] | < 10 nM | < 10 nM | – | –
COC[C@H](C)n1cc(-c2ccc(C(=O)NC3(C(=O)O)C4CC5CC(C4)CC3C5)c(C(F)(F)F)n2)c2ccc(O[C@H]3CC[C@H](N4CC(F)(F)C4)CC3)cc21 (some centres unmarked) [Compound I-577] | < 10 nM | < 10 nM | – | –
CC(F)(F)CN1CCC(Oc2ccc3c(-c4ncc(C(=O)NC5(C(=O)O)C6CC7CC(C6)CC5C7)c(C(F)(F)F)n4)cn(C4CCOCC4)c3c2)CC1 (centres unmarked) [Compound I-578] | < 10 nM | < 10 nM | – | –
CC(F)(F)c1nc(-c2cn(C3CCC4(CC3)COC4)c3cc(O[C@H]4CC[C@H](N5CC(F)(F)C5)CC4)ccc23)ncc1C(=O)NC1(C(=O)O)C2CC3CC(C2)CC1C3 (some centres unmarked) [Compound I-580] | < 10 nM | < 10 nM | – | –
COC[C@@H](C)n1cc(-c2ccc(C(=O)NC3(C(=O)O)C4CC5CC(C4)CC3C5)c(C(F)(F)F)n2)c2ccc(O[C@H]3CC[C@H](N4CC(F)(F)C4)CC3)cc21 (some centres unmarked) [Compound I-581] | < 10 nM | < 10 nM | – | –
O=C(NC1(C(=O)O)C2CC3CC(C2)CC1C3)c1ccc(-c2cn(C3CCC4(CC3)COC4)c3cc(O[C@H]4CC[C@H](N5CC(F)(F)C5)CC4)ccc23)nc1C(F)(F)F (some centres unmarked) [Compound I-582] | < 10 nM | < 10 nM | – | –
CC(F)(F)CN1CCC(Oc2ccc3c(-c4ncc(C(=O)NC5(C(=O)O)C6CC7CC(C6)CC5C7)c(C(C)(F)F)n4)cn(C4CCC(F)(F)CC4)c3c2)CC1 (centres unmarked) [Compound I-583] | < 10 nM | < 10 nM | – | –
COC[C@@H](C)n1cc(-c2ncc(C(=O)NC3(C(=O)O)C4CC5CC(C4)CC3C5)c(C(F)(F)F)n2)c2ccc(O[C@H]3CC[C@@H](N4CC(F)(F)C4)CC3)cc21 (some centres unmarked) [Compound I-585] | < 10 nM | < 10 nM | – | –
CC(F)(F)c1nc(N2CC3(CCOCC3)c3cc(O[C@H]4CC[C@@H](N5CC(F)(F)C5)CC4)ccc32)ncc1C(=O)NC1(C(=O)O)C2CC3CC(C2)CC1C3 (some centres unmarked) [Compound I-586] | < 10 nM | < 10 nM | – | –
CCC1(CC)CN(c2ncc(C(=O)NC3(C(=O)O)C4CC5CC(C4)CC3C5)c(C(C)(F)F)n2)c2ccc(OC3CCN(c4ncc(F)cn4)CC3)cc21 (centres unmarked) [Compound I-588] | < 10 nM | < 10 nM | – | –
CCC1(CC)CN(c2ncc(C(=O)NC3(C(=O)O)C4CC5CC(C4)CC3C5)c(C(C)(F)F)n2)c2ccc(OC3CCN(CC(F)(F)F)CC3)cc21 (centres unmarked) [Compound I-589] | < 10 nM | < 10 nM | – | –

Structure (SMILES) | EC50 [1, 2] | EC50 (RSV A2 strain; [3]) | EC50 [1, 4] | EC50 (RSV A2 strain; [5])
CCC1(CC)CN(c2ncc(C(=O)NC3(C(=O)O)C4CC5CC(C4)CC3C5)c(C(C)(F)F)n2)c2ccc(O[C@H]3CC[C@H](N4CC(F)(F)C4)CC3)cc21 (some centres unmarked) [Compound I-591] | – | – | 2.2 nM | 0.61 nM
CC(F)(F)c1nc(N2CC3(CCOCC3)c3cc(OC4CN(CC(F)(F)F)C4)ccc32)ncc1C(=O)NC1(C(=O)O)C2CC3CC(C2)CC1C3 (centres unmarked) [Compound I-592] | < 10 nM | < 10 nM | – | –
CC(F)(F)c1nc(N2CC3(CCOCC3)c3cc(OC4CCN(C5CS(=O)(=O)C5)CC4)ccc32)ncc1C(=O)NC1(C(=O)O)C2CC3CC(C2)CC1C3 (centres unmarked) [Compound I-593] | < 10 nM | < 10 nM | – | –
CC(F)(F)c1nc(N2CC3(CCOCC3)c3cc(O[C@H]4CC[C@H](N5CC(F)(F)C5)CC4)ncc32)ncc1C(=O)NC1(C(=O)O)C2CC3CC(C2)CC1C3 (some centres unmarked) [Compound I-594] | – | – | 4.2 nM | 0.38 nM
O=C(NC1(C(=O)O)C2CC3CC(C2)CC1C3)c1cnc(N2CC3(CCCCC3)c3cc(O[C@H]4CC[C@H](N5CC(F)(F)C5)CC4)ncc32)nc1C(F)(F)F (some centres unmarked) [Compound I-595] | < 10 nM | < 10 nM | – | –
CC(F)(F)c1nc(N2CC3(CCOCC3)c3cc(-n4ncc5c4CCN(CC(F)(F)F)C5)ccc32)ncc1C(=O)NC1(C(=O)O)C2CC3CC(C2)CC1C3 (centres unmarked) [Compound I-596] | < 10 nM | < 10 nM | – | –
CC(F)(F)c1nc(N2CC3(CC3)c3cc(O[C@H]4CC[C@H](N5CC(F)(F)C5)CC4)ccc32)ncc1C(=O)NC1(C(=O)O)C2CC3CC(C2)CC1C3 (some centres unmarked) [Compound I-597] | < 10 nM | < 10 nM | – | –
CC(F)(F)c1nc(N2CC3(CCCC3)c3cc(O[C@@H]4CCN(CC(F)(F)F)C4)ccc32)ncc1C(=O)NC1(C(=O)O)C2CC3CC(C2)CC1C3 (some centres unmarked) [Compound I-598] | < 10 nM | < 10 nM | – | –
CC(F)(F)c1nc(N2CC3(CCOCC3)c3cc(OC4CCN(c5ncc(F)cn5)CC4)ncc32)ncc1C(=O)N[C@]1(C(=O)O)[C@@H]2CC3C[C@H]1C[C@@](F)(C3)C2 [Compound I-599] | < 10 nM | < 10 nM | – | –
CC(F)(F)c1nc(N2CC3(CCCCC3)c3cc(OC4CCN(c5ncc(F)cn5)CC4)ncc32)ncc1C(=O)N[C@]1(C(=O)O)[C@@H]2CC3C[C@H]1C[C@@](F)(C3)C2 [Compound I-600] | < 10 nM | < 10 nM | – | –
CC(F)(F)c1nc(N2CC3(CCOCC3)c3cc(O[C@H]4CC[C@H](N5CC(F)(F)C5)CC4)ncc32)ncc1C(=O)N[C@]1(C(=O)O)[C@@H]2CC3C[C@H]1C[C@@](F)(C3)C2 [Compound I-601] | < 10 nM | < 10 nM | – | –
CC(F)(F)c1nc(N2CC3(CCOCC3)c3cc(-n4ncc5c4CCN(CC(F)(F)F)C5)ncc32)ncc1C(=O)NC1(C(=O)O)C2CC3CC(C2)CC1C3 (centres unmarked) [Compound I-602] | < 10 nM | < 10 nM | – | –
CC(F)(F)c1nc(N2CC3(CC3)c3cc(OC4CCN(c5ncc(F)cn5)CC4)ccc32)ncc1C(=O)NC1(C(=O)O)C2CC3CC(C2)CC1C3 (centres unmarked) [Compound I-603] | < 10 nM | < 10 nM | – | –
CC(F)(F)c1nc(N2CC3(CC3)c3cc(OC4CCN(CC(F)(F)F)CC4)ccc32)ncc1C(=O)NC1(C(=O)O)C2CC3CC(C2)CC1C3 (centres unmarked) [Compound I-604] | < 10 nM | < 10 nM | – | –
CC(F)(F)c1nc(N2CC3(CCOCC3)c3cc(OC4CCN(CC(F)(F)F)CC4)ncc32)ncc1C(=O)N[C@]1(C(=O)O)[C@@H]2CC3C[C@H]1C[C@@](F)(C3)C2 [Compound I-605] | < 10 nM | < 10 nM | – | –
